Key:
BsRhaA = biological target: T1, BsRhaA (Bacillus sp. GL1, UniProt Q93RE8); assay: p-nitrophenol release, absorbance […] nm; format: biochemical; settings: […] sodium phosphate pH […] °C
T1 sequence (Q93RE8 1-886): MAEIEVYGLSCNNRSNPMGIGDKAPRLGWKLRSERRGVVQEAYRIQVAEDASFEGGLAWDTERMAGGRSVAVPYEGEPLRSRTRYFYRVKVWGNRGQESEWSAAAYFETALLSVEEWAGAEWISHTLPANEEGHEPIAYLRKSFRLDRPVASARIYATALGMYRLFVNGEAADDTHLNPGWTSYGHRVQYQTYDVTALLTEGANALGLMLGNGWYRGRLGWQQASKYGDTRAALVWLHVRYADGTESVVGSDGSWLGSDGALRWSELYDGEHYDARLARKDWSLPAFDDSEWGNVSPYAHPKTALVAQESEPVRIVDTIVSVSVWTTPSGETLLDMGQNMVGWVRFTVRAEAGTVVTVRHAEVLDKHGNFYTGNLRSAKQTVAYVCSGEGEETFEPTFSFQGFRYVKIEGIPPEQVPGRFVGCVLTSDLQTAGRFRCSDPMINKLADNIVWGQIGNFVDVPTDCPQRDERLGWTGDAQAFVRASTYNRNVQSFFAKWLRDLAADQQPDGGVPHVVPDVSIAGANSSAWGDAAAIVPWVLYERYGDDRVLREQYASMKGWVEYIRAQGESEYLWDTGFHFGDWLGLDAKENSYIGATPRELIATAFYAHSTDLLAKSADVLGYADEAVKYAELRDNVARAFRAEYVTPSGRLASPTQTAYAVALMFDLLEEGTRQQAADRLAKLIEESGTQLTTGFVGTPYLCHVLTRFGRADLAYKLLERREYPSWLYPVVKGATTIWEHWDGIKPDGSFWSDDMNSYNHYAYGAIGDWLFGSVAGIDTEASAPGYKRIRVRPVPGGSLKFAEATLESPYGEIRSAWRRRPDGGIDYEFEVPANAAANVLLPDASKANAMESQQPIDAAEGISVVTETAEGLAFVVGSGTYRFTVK

KoRha = biological target: T2, KoRha (Klebsiella oxytoca, UniProt A0A0J9X262); assay: p-nitrophenol release, absorbance […] nm; format: biochemical; settings: 100 mM sodium phosphate pH 7.0, 30 °C
T2 sequence (A0A0J9X262 1-523): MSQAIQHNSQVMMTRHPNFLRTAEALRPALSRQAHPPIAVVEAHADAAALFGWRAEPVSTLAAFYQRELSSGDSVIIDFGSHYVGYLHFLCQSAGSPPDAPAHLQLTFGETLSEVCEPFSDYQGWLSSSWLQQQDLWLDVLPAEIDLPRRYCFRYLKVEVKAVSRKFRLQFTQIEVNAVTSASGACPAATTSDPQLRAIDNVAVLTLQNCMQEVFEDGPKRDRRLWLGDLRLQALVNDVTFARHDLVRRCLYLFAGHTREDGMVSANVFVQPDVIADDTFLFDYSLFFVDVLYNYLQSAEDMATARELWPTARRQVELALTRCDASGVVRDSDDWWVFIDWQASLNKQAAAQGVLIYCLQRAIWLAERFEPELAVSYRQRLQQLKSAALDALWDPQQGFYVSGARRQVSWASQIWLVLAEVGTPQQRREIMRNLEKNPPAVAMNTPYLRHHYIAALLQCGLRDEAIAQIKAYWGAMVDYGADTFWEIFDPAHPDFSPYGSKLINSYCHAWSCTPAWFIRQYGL

In the case of `C[C@@H]1O[C@@H](Oc2ccc([N+](=O)[O-])cc2)[C@H](O)[C@H](O)[C@H]1O` [pNP-α-L-Rha, 4-nitrophenyl-α-L-rhamnopyranoside], the “p-nitrophenol release, absorbance 405 nm” value (BsRhaA) is reported as “All four α-L-Rha-ases exhibited α-L-rhamnosyl-hydrolyzing and weak α-L-mannosyl-hydrolyzing activity” and the “p-nitrophenol release, absorbance 405 nm” value (KoRha) is reported as “All four α-L-Rha-ases exhibited α-L-rhamnosyl-hydrolyzing and weak α-L-mannosyl-hydrolyzing activity”.
